In patent US9758494B2, “N-(oxazol-2-yl)-aryl-carboxylic acid amides and use thereof as herbicides” (BAYER CROPSCIENCE AG, priority 2012, dated 2017):

Key:
Type in all cases: in vivo
Oryza sativa (Rice) [1] = assay: Pre-emergence, damage of crop plants
From the text: (§1) Seeds of monocotyledonous and dicotyledonous weed plants and crop plants are laid out in wood-fiber pots in sandy loam and covered with soil. The compounds according to the invention, formulated in the form of wettable powders (WP) or as emulsion concentrates (EC), are then applied to the surface of the soil cover in the form of an aqueous suspension or emulsion at a water application rate equating to 600 to 800 l/ha, with addition of 0.2% wetting agent. After the treatment, the pots are placed in a greenhouse and kept under good growth conditions for the test plants. The damage to the test plants is assessed visually after a test period of 3 weeks by comparison with untreated controls (herbicidal activity in percent (%): 100% activity=the plants have died, 0% activity=like control plants). Here, for example, compounds No. 1-163, 1-171, 1-172, 1-283, 1-284, 1-294, 1-295, 1-334, 10-001 and 11-343, at an application rate of 320 g/ha, have an activity of at least 80% against Veronica persica.
(§2) In the tables below, the properties of the compounds according to the invention are compared to those of the structurally most similar compounds known from WO 2012/028579 A1. These tests were carried out by the pre- and post-emergence method under the conditions mentioned under item 1 and item 2. Here, the herbicidal activity against various harmful plants and the damage of some important crop plants were compared at different dosages.

Veronica persica = assay: Post-emergence herbicidal action; settings: Dosage 5/ha (Table T)
Protocol: (§3) Seeds of monocotyledonous and dicotyledonous weed plants and crop plants are laid out in wood fiber pots in sandy loam, covered with soil and cultivated in a greenhouse under good growth conditions. 2 to 3 weeks after sowing, the test plants are treated at the one-leaf stage. The compounds according to the invention, formulated in the form of wettable powders (WP) or as emulsion concentrates (EC), are then sprayed onto the green parts of the plants in the form of an aqueous suspension or emulsion at a water application rate equating to 600 to 800 l/ha, with addition of 0.2% wetting agent. After the test plants have been left to stand in the greenhouse under optimal growth conditions for about 3 weeks, the action of the preparations is assessed visually in comparison to untreated controls (herbicidal action in percent (%): 100% activity=the plants have died, 0% activity=like control plants). Here, for example, compounds No. 1-163, 1-171, 1-172, 1-173, 1-254, 1-283, 1-284, 1-293, 1-294 and 1-334, at an application rate of 80 g/ha, have an activity of at least 80% against Abutilon theophrasti and Amaranthus retroflexus.
as §2

Stellaria media = assay: Post-emergence herbicidal action; settings: Dosage 5/ha (Table T)
Protocol: as §3, §2

Matricaria inodora = assay: Pre-emergence herbicidal action; settings: Dosage 80/ha (Table H)
From the text: as §1, §2

Echinochloa crus galli = assay: Pre-emergence herbicidal action; settings: Dosage 80/ha (Table H)
From the text: as §1, §2

Zea mays (Corn) = assay: Post-emergence, damage of crop plants; settings: Dosage 80 g/ha (Table U)
Protocol: as §3, §2

Oryza sativa (Rice) [2] = assay: Post-emergence, damage of crop plants; settings: Dosage 80 g/ha (Table U)
Protocol: as §3, §2

O=C(Nc1ncco1)c1ccc(C(F)(F)F)nc1Cl [10-1]
Damage of ORYZA (Oryza sativa (Rice) [1]; 20 g/ha (Table I)): 0%
Damage of ORYZA (Oryza sativa (Rice) [1]; 80 g/ha (Table I)): 0%
herbicidal activity against harmful plants VERPE (Veronica persica): 90%
herbicidal activity against harmful plants STEME (Stellaria media): 40%
herbicidal activity against harmful plants MATIN (Matricaria inodora): 90%
herbicidal activity against harmful plants ECGCG (Echinochloa crus galli): 70%
damage of crop plants ZEAMX (Zea mays (Corn)): 0%
damage of crop plants ORYZA (Oryza sativa (Rice) [2]): 0%
